Legend:
[1] = target: Opiate μ (Homo sapiens, UniProt P35372); assay: NSAIDS and Opioid Receptor Test: Opiate μ; type: binding; conditions: 10 μM
Description: (§1) Compounds were screened as DMSO solutions at 10 μM, 100 μM, or 200 μM and values represent percent inhibition of control-specific binding. […] As NSAID and opioid mechanisms of action are precluded, a person of ordinary skill in the art understands that undesirable side effects associated with inhibition of COX receptors in NSAIDs and activation of opiate receptors in opioids can be avoided by compounds described herein. Furthermore, opioids are known to lose their analgesic potency after to continued administration. (See Benyamin, et al. “Opioid Complications and Side Effects” Pain Physician 11 (2008): S105-S120). As the data indicates compounds described herein have a different mechanism action compared to opioids, a person of ordinary skill in the art would appreciate that compounds described herein would not be expected to lose their analgesic potency like opioids after continued admininistration.

[2] = target: Opiate δ2 (Homo sapiens, UniProt P41143); assay: NSAIDS and Opioid Receptor Test: Opiate δ2; type: binding; conditions: 10 μM
Description: as §1

[3] = system: male Sprague-Dawley rats; assay: UVB Inflammatory Pain Test (thermal hyperalgesia); type: in vivo; conditions: rat, oral; for paw withdrawal latency, 1 h: 1 h after dosing; for paw withdrawal latency, 2 h: 2 h after dosing; for paw withdrawal latency, 4 h: 4 h after dosing
Outline: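 Left hind-paw plantar UVB (350 mJoules/cm^2) given on Day −3 to male Sprague-Dawley rats; on Day 0, test compounds dosed orally at 3, 10, 30 or 100 mg/kg, with water vehicle, celecoxib 30 mg/kg and acetaminophen 300 mg/kg. Radiant-heat paw withdrawal latency (mean of 3, 30 s cutoff) measured before dosing and about 1, 2 and 4 h after.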

[4] = Bioavailability Test (rat pharmacokinetics); type: in vivo; conditions: for F: PO 30 mg/kg vs IV 3 mg/kg; for AUC(0-inf) / clearance / half-life / Vd / Cmax / Tmax: male, Sprague-Dawley, in vivo; for Vd: read-out: Vdss
Description: Oral bioavailability of compounds of Formulae (Ie), (Ih), (Ik), and (Ir), or a pharmaceutically acceptable salt of any of the foregoing, were evaluated in fasted male Sprague-Dawley (SD) rats weighing 200-225g. Compounds were dosed at 3 mg/kg (IV) and 30 mg/kg (PO). Unless otherwise noted, compounds were dissolved in 0.9% saline for IV dosing and 100% sterile water for PO dosing. Pharmacokinetic parameters were determined using Phoenix WinNonlin (v7.0). […]

Sequence of Opiate μ (P35372 whole entry): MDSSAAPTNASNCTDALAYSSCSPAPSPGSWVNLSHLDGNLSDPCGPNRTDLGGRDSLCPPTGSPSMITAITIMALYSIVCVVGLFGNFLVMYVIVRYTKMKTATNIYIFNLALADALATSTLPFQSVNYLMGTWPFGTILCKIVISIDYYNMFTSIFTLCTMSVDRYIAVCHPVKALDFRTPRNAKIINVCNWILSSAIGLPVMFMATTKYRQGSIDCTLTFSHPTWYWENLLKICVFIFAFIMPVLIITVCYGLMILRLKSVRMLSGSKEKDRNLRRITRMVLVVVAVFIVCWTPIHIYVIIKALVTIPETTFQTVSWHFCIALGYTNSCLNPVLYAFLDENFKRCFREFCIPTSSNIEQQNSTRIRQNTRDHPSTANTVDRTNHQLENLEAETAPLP
Sequence of Opiate δ2 (P41143 whole entry): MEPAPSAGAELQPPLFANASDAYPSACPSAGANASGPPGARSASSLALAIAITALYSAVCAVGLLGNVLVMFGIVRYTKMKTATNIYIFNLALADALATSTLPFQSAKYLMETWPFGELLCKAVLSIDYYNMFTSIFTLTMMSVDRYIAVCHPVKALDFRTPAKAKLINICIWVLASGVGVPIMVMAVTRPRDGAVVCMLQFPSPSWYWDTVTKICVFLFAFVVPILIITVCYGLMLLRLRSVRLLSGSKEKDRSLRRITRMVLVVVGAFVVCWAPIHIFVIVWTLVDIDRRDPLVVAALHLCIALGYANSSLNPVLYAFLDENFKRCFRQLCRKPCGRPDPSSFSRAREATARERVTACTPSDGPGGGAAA

SMILES	inhibition at 10 µM [1] [%]	inhibition at 10 µM [2] [%]	paw withdrawal latency, 1 h ([3]; 3 mg/kg)	paw withdrawal latency, 2 h ([3]; 3 mg/kg)	paw withdrawal latency, 4 h ([3]; 3 mg/kg)	paw withdrawal latency, 1 h ([3]; 10 mg/kg)	paw withdrawal latency, 2 h ([3]; 10 mg/kg)	paw withdrawal latency, 4 h ([3]; 10 mg/kg)	paw withdrawal latency, 1 h ([3]; 30 mg/kg)	paw withdrawal latency, 2 h ([3]; 30 mg/kg)	paw withdrawal latency, 4 h ([3]; 30 mg/kg)	paw withdrawal latency, 1 h ([3]; 100 mg/kg)	paw withdrawal latency, 2 h ([3]; 100 mg/kg)	paw withdrawal latency, 4 h ([3]; 100 mg/kg)	F [4] [%]	AUC(0-inf) ([4]; IV 3 mg/kg, 0.9% saline) [µM·h]	clearance ([4]; IV 3 mg/kg, 0.9% saline) [mL/min/kg]	half-life ([4]; IV 3 mg/kg, 0.9% saline) [h]	Vd ([4]; IV 3 mg/kg, 0.9% saline) [L/kg]	AUC(0-inf) ([4]; PO 30 mg/kg, sterile water) [µM·h]	further results
Cc1sc(C23CC(N)(C2)C3)nc1C(F)(F)F.Cl [Compound 2, 3-(5-Methyl-4-(trifluoromethyl)thiazol-2-yl)bicyclo[1.1.1]pentan-1-amine hydrochloride]	9	10	A (>8 seconds of paw withdrawal latency)	A (>8 seconds of paw withdrawal latency)	A (>8 seconds of paw withdrawal latency)	A (>8 seconds of paw withdrawal latency)	B (>6 and <8 seconds of paw withdrawal latency)	A (>8 seconds of paw withdrawal latency)	A (>8 seconds of paw withdrawal latency)	A (>8 seconds of paw withdrawal latency)	B (>6 and <8 seconds of paw withdrawal latency)	A (>8 seconds of paw withdrawal latency)	A (>8 seconds of paw withdrawal latency)	A (>8 seconds of paw withdrawal latency)	79	4	52	2.7	3.6	29	Cmax ([4]; PO 30 mg/kg, sterile water): 12 µM; Tmax ([4]; PO 30 mg/kg, sterile water): 1 h; half-life ([4]; PO 30 mg/kg, sterile water): 2.4 h
Cl.NC12CC(c3nc(C(F)(F)F)cs3)(C1)C2 [Compound 1, 3-(4-(Trifluoromethyl)thiazol-2-yl)bicyclo[1.1.1]pentan-1-amine hydrochloride]	11	7	B (>6 and <8 seconds of paw withdrawal latency)	B (>6 and <8 seconds of paw withdrawal latency)	B (>6 and <8 seconds of paw withdrawal latency)	B (>6 and <8 seconds of paw withdrawal latency)	B (>6 and <8 seconds of paw withdrawal latency)	B (>6 and <8 seconds of paw withdrawal latency)	A (>8 seconds of paw withdrawal latency)	A (>8 seconds of paw withdrawal latency)	A (>8 seconds of paw withdrawal latency)	A (>8 seconds of paw withdrawal latency)	A (>8 seconds of paw withdrawal latency)	A (>8 seconds of paw withdrawal latency)	115	19.2	11	3.1	1.4	277	Cmax ([4]; PO 30 mg/kg, sterile water): 49 µM; Tmax ([4]; PO 30 mg/kg, sterile water): 0.3 h; half-life ([4]; PO 30 mg/kg, sterile water): 5.6 h
